# Experiments:
# ALS patients [1] = conditions: human, in vivo
# Description: Five ALS patients (men, women, duration of disease one, one, three and one-half, four and three years, respectively) were given TRH as a continuous intravenous infusion. […] For about one-fifth of the days, the patients were given saline placebo.
# It should be noted that the TRH administered in Example I was infused at a rate of up to 200 mg. over a twenty-four hour period. In terms of presence in the body at any one time, this amounted to an infusion rate of about 0.14 mg/minute ([…] body weight based upon the average patient weight of 70 kg). Accordingly, and in view of the significant results shown in Examples II-VIII, it appears that an elevated initial dose and consequently a blood level peak, providing a pulse-effect, is required each time TRH is given. Specifically, in Example IV, intravenous infusion at one milligram per minute (over seven times the infusion rate in Example I) produced an improvement of strength in several muscle functions. […] In Example IV, an acute increase in strength occurred at 4.7 mg/minute intravenously.
# There were several control aspects of the TRH studies. […] The patients given subcutaneous TRH had treatments interspersed with saline placebo injections. […] The time course of response was not known before the study and, in fact, it was expected that the onset would be later and the duration of response longer than was actually found. […]
# ALS patients [2] = type: in vivo, human
# Description: Three fasting ALS patients (men aged 37 and 60 and a person; duration of disease three-quarters of a year, one and three years, respectively) were each given an intravenous infusion of TRH in which the dose increased in seven steps from 0.5 to 19 mg/minute over sixty to eighty minutes (total dose 320, 432 and 500 mg). The two men had major spasticity from upper motor neuron involvement and weakness from lower motor neuron involvement. […] Shivering, tachypnoea and sweating increased further with rising dosage, and in the two men the infusion was stopped at 19 mg/minute, after 320 and 432 mg total, because of tachypnoea (40-45 breaths per minute) and vigorous shivering. There also was a transient increase in pulse rate (10-15 beats per minute). The men experienced sensations of coolness or warmth of the anterior lower chest and abdomen. One of the men felt "bad all over" at 19 mg/minute. […] At that time, a spinal lumbar puncture was performed to obtain cerebrospinal fluid for analysis as hereinafter described. The patient had no spasticity, only weakness from lower motor neuron involvement. […] Their infusion was stopped when the drug supply was depleted (at 500 mg total dose). The dosage was not stopped because of side-effects of TRH. […] Experience with the additional patients confirmed the observation that there is more shivering side-effect in the patients with more spasticity.
# There were several control aspects of the TRH studies. […] The patients given subcutaneous TRH had treatments interspersed with saline placebo injections. […] The time course of response was not known before the study and, in fact, it was expected that the onset would be later and the duration of response longer than was actually found. Different patients responded to different doses of TRH, and the sex difference in response (woman apparently less responsive) was not expected. […] There were three observers, one unaware of the infusion status. In addition, clinical examinations of all patients of Examples III-VII were videotaped and later reviewed by several observers.
# [3] = test system: non-ALS person with chronic juvenile proximal spinal muscular atrophy; type: in vivo, human
# ALS patients [4] = test: Transient autorefractory effect, intravenous TRH in ALS patients; type: in vivo, human
# Description: To analyze this phenomenon, four ALS patients were given six-minute intravenous pulses of […] of TRH at ten to twenty minute intervals. Each of the first one to five "priming doses" produced or, sustained dramatically-increased strength in responsive muscles. Subsequent identical pulses precipitated an equally dramatic interruption within 18-30 seconds causing rapid loss of all improvement, back to baseline strength or below, i.e., "autorefractoriness." Some weakness of clinically normal limb muscles also sometimes occurred. Eleven autorefractory states of the four patients lasted 12-100 minutes (median 68 minutes) after initial administration of TRH, until spontaneous recovery re-achieved maximal strength benefit. During recovery, strength fluctuated. […] When the autorefractory state first developed, with loss of strength to baseline, increasing the infusion to 1.5 mg/minute rapidly overcame the "block" within one minute, associated with increased strength. Within another minute, complete autorefractoriness reappeared. Raising the rate to 2 mg/minute again reversed this blockage, with strength increased to maximum in thirty seconds, but autorefractoriness reappeared in 1.5 minutes. […] Strength fluctuated between complete blockage and partial reversal for the next 71 minutes until the autorefractoriness fully reversed itself at 81 minutes.
# ALS patients [5] = test: Transient autorefractory effect, subcutaneous TRH in ALS patients; type: in vivo, human
# From the text: Possible mechanisms for autorefractoriness, presumably involving the lower motor neuron soma/dendrites and/or neurons afferent thereto, include: […] In normal animals, repeated micropipetting of TRH near lower motor neurons has been shown by others to cause a similar prolonged unresponsiveness. The mechanism of autorefractoriness may be, in general, related to the excellent clinical anti-spasticity benefits of TRH, and non-excitatory TRH analogs may be employed within the spirit of the invention to enhance this type of clinical improvement.
# [6] = test system: tissue-cultured fetal rat lower motor neurons; test: Trophic-like effect on tissue-cultured fetal rat lower motor neurons (cholineactyltransferase); type: cell-based; conditions: chronic
# From the text: "Transmitter-like," as used herein, includes not only direct excitatory (or facilitatory) and inhibitory actions on the lower motor neurons, but also any action on lower motor neurons or afferents thereto that results indirectly in such an effect. That excitatory TRH action, increasing patients' strength, is either directly excitatory or facilitatory and perhaps analogous to the lower motor neuron facilitation of glutamate excitation noted with TRH micropipetted into spinal cords of normal amphibia (Nicoll, J. Pharmac. Exp. Therap. 1978; 207: 817-24; Phillis et al., Can. J. Physiol. Pharmacol. 1979; 57: 887-99 and rodents, White Abstr. Soc. Neurosci 1983, 9: 714, and in other animal studies. An inhibitory transmitter-like action seems likely to underlie both the rapid-onset autorefractory phenomenon and the possibly related clinical reduction of spasticity, spasms and cramps. A tachyphalaxis or desensitization phenomenon, perhaps similar to the clinical autorefractory state, has been noted in animal lower motor neurons with larger amounts of TRH micropipetted into the spinal cord (Nicoll and Phillis, et al., supra).
# [7] = eleven autorefractory states of four patients
structure (smiles),measurement,setting,value
"NC(=O)[C@@H]1CCCN1C(=O)[C@H](Cc1cnc[nH]1)NC(=O)[C@@H]1CCC(=O)N1 [TRH, L-pyroglutamyl-L-histidyl-L-prolinamide]",transient rise in serum aminotransferases,ALS patients [1],has not been found
same,effectiveness of low intravenous dose,"ALS patients [2]; 0.5 mg/minute for twenty minutes, Examples II and III",not found to be effective
same,"dose at which shivering, tachypnoea and sweating began","ALS patients [2]; human, in vivo, iv",8 mg/min
same,transient increase in pulse rate,"ALS patients [2]; human, in vivo, iv",10-15 beats per minute
same,"dose at which movement and strength of legs, arms and tongue began to improve, with decreased spasticity","ALS patients [2]; i.v. infusion increased in seven steps 0.5 to 19 mg/minute, two men",2 to 4 mg/min
same,persistence of benefits and side effects after infusion,ALS patients [2]; i.v. stepwise infusion,no longer obvious thirty minutes after the infusion ended
same,"response of patient with no spasticity, only lower motor neuron weakness","ALS patients [2]; i.v., 500 mg total dose",only slight subjective improvement in strength without obvious objective improvement
same,muscle strength,"[3]; 1-8 mg/minute i.v., 500 mg total, several muscle functions",slight to moderate improvement of strength
same,sensitivity to TRH relative to the men,[3]; i.v.,one-fourth to one-eighth as sensitive
same,intravenous rate at which an acute increase in strength occurred,[3]; printed as Example IV (summary),4.7 mg/min
same,onset of waning-waxing of TRH-increased lower motor neuron strength,"ALS patients [4]; continuous i.v. 1-8 mg/minute, all patients",as early as three to thirty minutes
same,duration of autorefractory states,ALS patients [4]; [7],12 to 100 min
same,median duration of autorefractory states,ALS patients [4]; [7],68 min
same,partial reversal of autorefractoriness after TRH was stopped,ALS patients [4]; one ALS patient,partially reversed at ten minutes
same,time to full reversal of autorefractoriness after TRH was stopped,ALS patients [4]; one ALS patient,81 min
same,strength,"ALS patients [4]; one ALS patient, 1 mg/minute continuous i.v.",markedly increased their strength
same,strength after raising the rate during autorefractoriness,"ALS patients [4]; one ALS patient, 2.5 mg/minute for nine minutes",failed to increase strength
same,time to interruption (loss of all improvement) after subsequent identical pulses,"ALS patients [4]; six-minute i.v. pulses of 4.17 mg/minute at ten to twenty minute intervals, four ALS patients",18 to 30 s
same,"partial autorefractory state, onset and duration","ALS patients [5]; 125-150 mg s.c., first day","began by four to ten minutes and lasted, with fluctuations, two to three hours"
same,time to increased strength,"ALS patients [5]; 125-150 mg s.c., first day, twenty ALS patients",within one to two minutes
same,effect of second dose at twenty-four hours,ALS patients [5]; another 125-150 mg s.c.,marked weakness within two minutes
same,drug resistance on repeated treatment,"ALS patients [5]; i.v. or s.c., as long as eight months",no diminution of beneficial response attributable to drug resistance
same,enhancement of cholineactyltransferase,[6],17 fold
